Key:
human osteoclasts [1] = assay: Human osteoclast resorption assay; conditions: human osteoclast activity, read-out: Cell-based % Inh. @ 1 μM Human
Description: Bone resorption was studied using a model where human osteoclast precursor cells were cultured on bovine bone slices for 9 days and allowed to differentiate into bone-resorbing osteoclasts. The formed mature osteoclasts were then allowed to resorb bone. The assay was performed by Pharmatest Services Ltd, ItAinen Pitkakatu 4C, Turku, Finland. After the culture period, bone collagen degradation products were quantified from the culture medium as an index of bone resorption. Inhibitor compounds were added into the cell cultures after the differentiation period and their effects on the resorbing activity of mature osteoclasts were determined. The studies included a baseline group without added compounds and a positive control group where a potent cathepsin K inhibitor E-64 was added.
Human peripheral blood monocytes were suspended to culture medium and allowed to attach to bovine bone slices. The bone slices were transferred into 96-well tissue culture plates containing culture medium with appropriate amounts of important growth factors favouring osteoclast differentiation, including M-CSF, RANK-ligand and TGF-β. The cells were incubated in a CO2 incubator in humidified atmosphere of 95% air and 5% carbon dioxide at 37° C. At day 7 when osteoclast differentiation was complete, the culture medium was replaced with culture medium containing conditions favouring osteoclast activity. The cell culture was continued for an additional 2 days, during which the formed mature osteoclasts were allowed to resorb bone in the presence of vehicle, control inhibitor (E64) or test compounds. At the end of the culture, bone collagen degradation products released into the culture medium were determined using a commercially available ELISA method (CrossLaps® for culture, Nordic Bioscience, Herlev, Denmark) as an index of bone resorption (see Bagger, Y. Z., et al, J. Bone. Miner. Res. 14 (suppl. 1), S370).

rat osteoclasts = assay: Rat osteoclast resorption assay; conditions: read-out: Cell-based % Inh. @ 1 μM Rat
Description: Bone resorption was studied using a model where mature osteoclasts derived from rat bone were cultured on bovine bone slices for 3 days and allowed to resorb bone in the presence of inhibitor, positive control (E-64) or vehicle. More specifically, tibia, femori and humeri were removed from 1 day old rat pups. The endosteal surfaces of the bones were scraped with a scapelto release osteoclasts into the culture medium and the osteoclasts were allowed to attach to bovine bone slices. After the culture period, bone collagen degradation products were quantified from the culture medium as an index of bone resorption. The assay was performed by Pharmatest Services Ltd, Itilinen Pitkakatu 4C, Turku, Finland.

[2] = Liver microsomal incubations (HLM stability); type: in vitro ADME; conditions: human liver microsomes
Description: Human and rat liver microsomes were purchased from BD Gentest (Woburn, Mass., USA) and β-nicotinamide adenine dinucleotide 2′-phosphate reduced tetrasodium salt (NADPH) was purchased from Sigma-Aldrich (Poole, Dorset, UK). All liver microsome incubations were carried out in 50 mM potassium phosphate buffer at pH 7.4, with a final microsomal protein concentration of 0.5 mg/mL. Compounds were taken from 5 mM DMSO stock solutions and diluted in incubation buffer to give a final concentration of […] with a final DMSO concentration of 0.5% v/v. In brief, compounds were added to the incubation buffer along with the liver microsomes and incubated at 37° C. for 10 minutes. The reaction was then initiated by the addition of NADPH, previously dissolved in incubation buffer, to give a final concentration of 1 mM and re-incubated at 37° C. Aliquots were removed at 2 and 60 minutes and quenched with an equal volume of cold acetonitrile. After mixing vigorously, the precipitated protein matter was removed by filtration (Multiscreen Solvinert filter plates, Millipore, Bedford, Mass., USA) and the filtrate analysed by reverse phase HPLC with mass spectrometric detection, using single ion monitoring of the [M+H]^+ species. Metabolic turnover was determined by comparison of peak areas from the ion chromatograms of the parent compound at 2 and 60 minutes and expressed as percent remaining at 1 hour.

[3] = Plasma incubations (human plasma stability); type: in vitro ADME; conditions: 37° C.
Description: Human and rat plasma were purchased from Innovative Research Inc. (Southfield. MI, USA). Compounds were taken from 5 mM DMSO stock solutions and added to plasma, which had previously been incubated at 37° C., to give a final concentration of 25 μM and re-incubated. Aliquots were removed at 2 and 60 minutes and quenched with an equal volume of cold acetonitrile. After mixing vigorously, the precipitated protein matter was removed by filtration (Multiscreen Solvinert filter plates, Millipore, Bedford, Mass., USA) and the filtrate analysed by reverse phase HPLC with mass spectrometric detection, using single ion monitoring of the [M+H]^+ species. Metabolic turnover was determined by comparison of peak areas from the ion chromatograms of the parent compound at 2 and 60 minutes and expressed as percent remaining at 1 hour: […]

[4] = target: T1, Human recombinant cathepsin K (Homo sapiens, UniProt P43235); assay: In vitro cathepsin Ki inhibition measurements; type: biochemical; conditions: read-out: In vitro Ki (nM) vs Cath K
T1 construct: purchased B. Turk, Josef, Stefan Institute, Ljubljana, Slovenia
T1 sequence (P43235 115-329): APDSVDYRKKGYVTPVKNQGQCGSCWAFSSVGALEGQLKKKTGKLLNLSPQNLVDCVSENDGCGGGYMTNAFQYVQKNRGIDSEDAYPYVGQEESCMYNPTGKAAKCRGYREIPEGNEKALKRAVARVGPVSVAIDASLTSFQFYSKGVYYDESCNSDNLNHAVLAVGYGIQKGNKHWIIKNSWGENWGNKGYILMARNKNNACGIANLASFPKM
Description: Stock solutions of substrate or inhibitor were made up to 10 mM in 100% dimethylsulfoxide (DMSO) (Rathburns, Glasgow, U.K.) and diluted as appropriately required. In all cases the DMSO concentration in the assays was maintained at less than 1% (vol./vol.). The equilibrium inhibition constants (Ki^ss) for each compound were measured under steady-state conditions monitoring enzyme activity as a function of inhibitor concentration. The values were calculated on the assumption of pure competitive behaviour (Cornish-Bowden, A. Fundamentals of enzyme kinetics Portland Press; 1995, 93-128.). Human recombinant cathepsin K (0.25 nM final; B. Turk, Josef, Stefan Institute, Ljubljana, Slovenia), was routinely assayed in 100 mM sodium acetate; pH 5.5 containing 1 mM EDTA, 10 mM L-cysteine and 1.8 μM Z-Leu-Arg-AMC ([S]=KM).
The apparent inhibition constant (Ki) for each compound was determined on the basis that inhibition was reversible and occurred by a pure-competitive mechanism. The Ki values were calculated, from the dependence of enzyme activity as a function of inhibitor concentration, by direct regression analysis (Prism v 3.02) using Equation 2 (Cornish-Bowden, A., 1995).
In situations where the apparent dissociation constant (Ki^app) approached the enzyme concentrations, the Ki^app values were calculated using a quadratic solution in the form described by Equation 3 (Morrison, J. F. Trends Biochem. Sci., 7, 102-105, 1982; Morrison, J. F. Biochim. Biophys. Acta, 185, 269-286, 1969; Stone, S. R. and Hofsteenge, J. Biochemistry, 25, 4622-4628, 1986).
In Equation 3 ‘vi’ is the observed residual activity, ‘F’ is the difference between the maximum activity (i.e. in the absence of inhibitor) and minimum enzyme activity, ‘Eo’ is the total enzyme concentration, ‘Ki^app’ is the apparent dissociation constant and ‘Io’ is the inhibitor concentration. Curves were fitted by non-linear regression analysis (Prism) using a fixed value for the enzyme concentration. Equation 4 was used to account for the substrate kinetics, where ‘Ki’ is the inhibition constant, ‘[So]’ is the initial substrate concentration and ‘KM^app’ is the apparent macroscopic binding (Michaelis) constant for the substrate (Morrison, 1982).

[5] = LogD determinations (shake-flask, octanol/PBS); type: physicochemical; conditions: 1-octanol/phosphate buffered saline; pH 7.4; ion-count method
Description: LogD(PBS) determinations were performed in 96 well microtitre plates using a miniaturised “shake-flask” method. In brief, compounds were taken from 10 mM DMSO stock solutions and added to wells containing equal volumes of phosphate buffered saline (10 mM; pH 7.4) (PBS) and 1-octanol (Sigma-Aldrich, Poole, Dorset, UK) to give a final concentration of 50 μM. The plates were then capped and mixed vigorously for 1 hour on a microtitre plate shaker, after which they were left to stand, allowing the PBS and octanol phases to separate. The PBS layer was analysed by reverse phase HPLC with mass spectrometric detection, using single ion monitoring of the [M+H]^+ species. LogD(PBS) was determined by comparison of the peak area from the ion chromatogram of the compound in the PBS phase with that of a 50 μM standard of the same compound dissolved in acetonitrile/water (50:50) and calculated using the following formula: […]
Where AUCstd and AUCpbs are the peak areas from the standard and test ion chromatograms respectively.

human osteoclasts [6] = conditions: human osteoclast, literature value; cited from earlier work

SMILES | inhibition at 1 µM (human osteoclasts [1]) | inhibition at 1 µM (rat osteoclasts) | HLM % rem. @ 1 hr [2] | Human Plasma Stability % rem. @ 1 hr [3] | Ki [4] | logD [5] | Cell-based % Inh. @ 1 μM Human (Lit.) (human osteoclasts [6])
CCC(C)[C@H](NC(=O)c1ccc(N2CCN(C)CC2)cc1)C(=O)N1CC[C@H]2OCC(=O)[C@H]21 (stereo in doubt) [Example 9, N-((2S,3S)-3-methyl-1-oxo-1-((3aS,6aR)-3-oxodihydro-2H-furo [3,2-b]pyrrol-4(5H,6H,6aH)-yl)pentan-2-yl)-4-(4-methylpiperazin-1-yl)benzamide] | 77% | 10% | 94% | 91% | 5 nM | 1.15 | 
CC(C)C[C@H](NC(=O)c1ccc(N2CCN(C)CC2)cc1)C(=O)N1CC[C@H]2OCC(=O)[C@H]21 [Example 1, reference compound] | 55% | 43% | 95% | 95% |  |  | 
CCN1CCN(c2ccc(C(=O)N[C@@H](CC(C)C)C(=O)N3CC[C@H]4OCC(=O)[C@H]43)cc2)CC1 [Example 2, 4-(4-ethylpiperazin-1-yl)-N—((S)-4-methyl-1-oxo-1-((3aS,6aR)-3-oxodihydro-2H-furo[3,2-b]pyrrol-4(5H,6H,6aH)-yl)pentan-2-yl)benzamide, reference compound] | 58% | 40% | 88% | 93% |  |  | 
CN1CCN(c2ccc(C(=O)N[C@@H](CC(C)(C)C)C(=O)N3CC[C@H]4OCC(=O)[C@H]43)cc2)CC1 [Example 3, N—((S)-4,4-dimethyl-1-oxo-1-((3aS,6aR)-3-oxo-dihydro-2H-furo[3,2-b]pyrrol-4(5H,6H,6aH)-yl)pentan-2-yl)-4-(4-methylpiperazin-1-yl)benzamide] | 79% | 75% | 96% | 95% | 4 nM | 0.87 | 
CCCN1CCN(c2ccc(C(=O)N[C@@H](CC(C)(C)C)C(=O)N3CC[C@H]4OCC(=O)[C@H]43)cc2)CC1 [Example 4, N—((S)-4,4-dimethyl-1-oxo-1-((3aS,6aR)-3-oxo-dihydro-2H-furo[3,2-b]pyrrol-4(5H,6H,6aH)-yl)pentan-2-yl)-4-(4-propylpiperazin-1-yl)benzamide] | 75% | 72% | 82% | 92% | 12 nM | 1.87 | 
COCCN1CCN(c2ccc(C(=O)N[C@@H](CC(C)(C)C)C(=O)N3CC[C@H]4OCC(=O)[C@H]43)cc2)CC1 [Example 5, N—((S)-4,4-dimethyl-1-oxo-1-((3aS,6aR)-3-oxo-dihydro-2H-furo[3,2-b]pyrrol-4(5H,6H,6aH)-yl)pentan-2-yl)-4-(4-(2-methoxyethyl)piperazin-1-yl)benzamide] | 72% | 79% | 92% | 90% | 14 nM | 1.51 | 
CN1CCN(c2ccc(C(=O)N[C@H](C(=O)N3CC[C@H]4OCC(=O)[C@H]43)C(C)(C)C)cc2)CC1 [Example 8, N—((S)-3,3-dimethyl-1-oxo-1-((3aS,6aR)-3-oxo-dihydro-2H-furo[3,2-b]pyrrol-4(5H,6H,6aH)-yl)butan-2-yl)-4-(4-methylpiperazin-1-yl)benzamide] | 82% | 20% | 89% | 93% | 6 nM | 0.81 | 
CC(C)C[C@H](NC(=O)c1ccc(C(C)(C)C)cc1)C(=O)N1CC[C@H]2OCC(=O)[C@H]21 [Prior art compound 23, reference compound] |  |  | 70% | 75% |  |  | Lit. 60%

Reference: US8053437B2, “Furo[3. 2-B] pyrrol derivatives” (Amura Therapeutics Limited, priority 2006, dated 2011)
